Results published in patent publication US20160280688A1, “SUBSTITUTED PHENYLALANINE DERIVATIVES” (BAYER PHARMA AKTIENGESELLSCHAFT, priority 2013, published 2016).
Where a name gives a salt, the structure may show the parent alone.

Molecular target: T1, human factor XIa (Homo sapiens, UniProt P03951)
T1 construct: purchased Kordia
Test: Measurement of FXIa inhibition (fluorogenic peptide substrate Boc-Glu(OBzl)-Ala-Arg-AMC)
Assay type: biochemical
Conditions: factor XIa from Kordia, 15 min preincubation, 30 min at 22° C., fluorescence
Description: To determine the factor XIa inhibition of the substances according to the invention, a biochemical test system is used which utilizes the reaction of a peptidic factor XIa substrate to determine the enzymatic activity of human factor XIa. Here, factor XIa cleaves from the peptic factor XIa substrate the C-terminal aminomethylcoumarin (AMC), the fluorescence of which is measured. The determinations are carried out in microtitre plates.
Test substances are dissolved in dimethyl sulphoxide and serially diluted in dimethyl sulphoxide (3000 μM to 0.0078 μM; resulting final concentrations in the test: 50 μM to 0.00013 μM). In each case 1 μl of the diluted substance solutions are placed into the wells of white microtitre plates from Greiner (384 wells). Subsequently, the following are added successively: 20 μl of assay buffer (50 mmol/l Tris buffer pH 7.4; 100 mmol/l sodium chloride; 5 mmol/l calcium chloride; 0.1% bovine serum albumin) and 20 μl of factor XIa from Kordia (0.45 nM in assay buffer). After 15 min of incubation, the enzyme reaction is started by addition of 20 μl of the factor XIa substrate Boc-Glu(OBzl)-Ala-Arg-AMC dissolved in assay buffer (10 μM in assay buffer) from Bachem, the mixture is incubated at room temperature (22° C.) for 30 min and fluorescence is then measured (excitation: 360 nm, emission: 460 nm). The measured emissions of the test batches with test substance are compared to those of control batches without test substance (only dimethyl sulphoxide instead of test substance in dimethyl sulphoxide), and IC50 values are calculated from the concentration/activity relationships.

T1 sequence (P03951 388-625 limits assumed): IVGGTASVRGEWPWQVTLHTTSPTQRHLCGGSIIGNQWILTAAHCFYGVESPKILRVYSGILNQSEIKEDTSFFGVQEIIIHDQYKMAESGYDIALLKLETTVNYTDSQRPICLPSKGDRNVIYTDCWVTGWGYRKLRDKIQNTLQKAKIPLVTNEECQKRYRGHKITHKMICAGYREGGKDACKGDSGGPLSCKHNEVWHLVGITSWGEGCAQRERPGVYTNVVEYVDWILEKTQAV
T1 sequence (P03951 19-387 partner limits assumed): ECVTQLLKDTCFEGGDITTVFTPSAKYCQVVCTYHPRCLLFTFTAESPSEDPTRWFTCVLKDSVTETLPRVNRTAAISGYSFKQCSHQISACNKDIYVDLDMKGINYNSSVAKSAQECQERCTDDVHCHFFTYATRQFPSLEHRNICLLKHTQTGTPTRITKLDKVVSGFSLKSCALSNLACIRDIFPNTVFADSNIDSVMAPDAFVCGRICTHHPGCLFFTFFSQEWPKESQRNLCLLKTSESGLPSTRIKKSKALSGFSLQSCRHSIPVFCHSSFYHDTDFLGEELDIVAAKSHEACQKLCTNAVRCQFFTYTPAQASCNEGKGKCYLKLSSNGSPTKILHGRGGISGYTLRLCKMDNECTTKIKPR

IC50 [nM]	Compound
2.6	NCC1CCC(C(=O)N[C@@H](Cc2ccc(-c3cnc4[nH]ccc4c3)cc2)C(=O)Nc2ccc(-c3nn[nH]n3)cc2)CC1 (stereo partly drawn) [Example 2, N-alpha-{[trans-4-(Aminomethyl)cyclohexyl]carbonyl}-4-(1H-pyrrolo[2,3-b]pyridin-5-yl)-N-[4-(2H-tetrazol-5-yl)phenyl]-L-phenylalaninamide hydrochloride]
3.8	Cn1cnc2ccc(-c3ccc(C[C@H](NC(=O)[C@H]4CC[C@H](CN)CC4)C(=O)Nc4ccc(-c5nn[nH]n5)cc4)cc3)cc21 [Example 15, N-alpha-{[trans-4-(Aminomethyl)cyclohexyl]carbonyl}-4-(1-methyl-1H-benzimidazol-6-yl)-N-[4-(2H-tetrazol-5-yl)phenyl]-L-phenylalaninamide hydrochloride]
3.2	Cn1cnc2cc(-c3ccc(C[C@H](NC(=O)[C@H]4CC[C@H](CN)CC4)C(=O)Nc4ccc(-c5nn[nH]n5)cc4)cc3)ccc21 [Example 16, N-alpha-{[trans-4-(Aminomethyl)cyclohexyl]carbonyl}-4-(1-methyl-1H-benzimidazol-5-yl)-N-[4-(2H-tetrazol-5-yl)phenyl]-L-phenylalaninamide hydrochloride]

Further lines, the molecule ahead of its results:

Compound	IC50 [nM]
Cc1ccc2[nH]ncc2c1-c1ccc(C[C@H](NC(=O)[C@H]2CC[C@H](CN)CC2)C(=O)Nc2ccc(-c3nn[nH]n3)cc2)cc1 [Example 18, N-alpha-{[trans-4-(Aminomethyl)cyclohexyl]carbonyl}-4-(5-methyl-1H-indazol-4-yl)-N-[4-(2H-tetrazol-5-yl)phenyl]-L-phenylalaninamide hydrochloride]	2.5
Cn1cc(-c2ccc(C[C@H](NC(=O)[C@H]3CC[C@H](CN)CC3)C(=O)Nc3ccc(-c4nn[nH]n4)cc3)cc2)c(=O)n(C)c1=O [Example 11, N-alpha-{[trans-4-(Aminomethyl)cyclohexyl]carbonyl}-4-(1,3-dimethyl-2,4-dioxo-1,2,3,4-tetrahydropyrimidin-5-yl)-N-[4-(2H-tetrazol-5-yl)phenyl]-L-phenylalaninamide hydrochloride]	3.2
NC[C@H]1CC[C@H](C(=O)N[C@@H](Cc2ccc(-c3c[nH]c(=O)[nH]c3=O)cc2)C(=O)Nc2ccc(-c3nn[nH]n3)cc2)CC1 [Example 14, N-alpha-{[trans-4-(Aminomethyl)cyclohexyl]carbonyl}-4-(2,4-dioxo-1,2,3,4-tetrahydropyrimidin-5-yl)-N-[4-(2H-tetrazol-5-yl)phenyl]-L-phenylalaninamide hydrochloride]	6.8
Cc1nc2cc(-c3ccc(C[C@H](NC(=O)[C@H]4CC[C@H](CN)CC4)C(=O)Nc4ccc(-c5nn[nH]n5)cc4)cc3)ccc2[nH]1 [Example 7, N-alpha-{[trans-4-(Aminomethyl)cyclohexyl]carbonyl}-4-(2-methyl-1H-benzimidazol-5-yl)-N-[4-(2H-tetrazol-5-yl)phenyl]-L-phenylalaninamide hydrochloride]	4.6
NC[C@H]1CC[C@H](C(=O)N[C@@H](Cc2ccc(-c3cccc4[nH]nc(N)c34)cc2)C(=O)Nc2ccc(-c3nn[nH]n3)cc2)CC1 [Example 10, 4-(3-Amino-1H-indazol-4-yl)-N-alpha-{[trans-4-(aminomethyl)cyclohexyl]carbonyl}-N-[4-(2H-tetrazol-5-yl)phenyl]-L-phenylalaninamide hydrochloride]	1.9
NC[C@H]1CC[C@H](C(=O)N[C@@H](Cc2ccc(-c3cn(Cc4ccccc4)c(=O)[nH]c3=O)cc2)C(=O)Nc2ccc(-c3nn[nH]n3)cc2)CC1 [Example 17, N-alpha-{[trans-4-(Aminomethyl)cyclohexyl]carbonyl}-4-(1-benzyl-2,4-dioxo-1,2,3,4-tetrahydropyrimidin-5-yl)-N-[4-(2H-tetrazol-5-yl)phenyl]-L-phenylalaninamide hydrochloride]	0.5
